{
  "source": "patent US8334413B2",
  "about": "“Topical compositions and methods for epithelial-related conditions” (Signum Biosciences, Inc., priority 2004, dated 2012)",
  "key": {"mouse ear [1]": {"test_system": "mouse ear", "assay": "AFC in acetone alone, mouse ear edema (irritancy)", "format": "in vivo, mice", "details": "topical, dose up to 32 mg/20 μl, 5.5 hours", "protocol": "The AFC inventive compositions were spread evenly with a pipette tip. Each contralateral ear was treated with only acetone in the same manner. The mice then were returned to their cages. After 5.5 hours, mice were sacrificed and 6 mm punches were taken from each ear and weighed. Edema response was expressed as the percent increase in the treated ear's weight over the untreated (acetone, vehicle only) ear."}, "TPA-induced edema": {"test_system": "TPA-induced edema", "assay": "TPA-induced edema, murine ear acute contact irritation model", "format": "in vivo, mice", "details": "2 μg TPA/20 μl acetone, AFC 15 min later, topical, 5.5 hours", "protocol": "In order to assess the effects of the inventive composition on TPA-induced edema, 2 μg of TPA in 20 μl acetone was applied with the aid of a micropipetter onto both ears of each of 6 mice. The mice were returned to their cages. […] 20 μl of an acetone vehicle was applied similarly to the left ear of each mouse as an internal negative control. After treatment, the mice were returned to their cages for 5.5 hours. The mice were sacrificed by cervical dislocation. The ears were immediately removed at their base and a 6 mm diameter punch biopsy was taken from the center of each ear. The ear punch was weighed on an analytical balance for edema measurements as described above."}, "TPA-induced MPO activity [2]": {"test_system": "TPA-induced MPO activity", "assay": "TPA-induced neutrophil infiltration, MPO assay", "format": "in vivo, Swiss Webster male mice", "protocol": "Neutrophil-infiltration Assay: Swiss Webster male mice (n=6) were treated with 1 μg/20 μl of TPA as described above in order to assess whether or not TPA induced neutrophil infiltration. Acetone was used as a control. TPA was administered as described above. The mice were returned to their cages for 24 hrs to allow neutrophil infiltration, then sacrificed by cervical dislocation. The ears were immediately removed for punch biopsy, and punches were fixed for subsequent histological analysis and MPO enzymatic assay.\nMPO Assay: This assay measures myeloperoxidase, (“MPO”) which is packaged in the primary granules of mature granulocytes including the neutrophil. Thus, the amount of MPO in the ear is proportional to the number of infiltrating neutrophils.\nMPO enzyme activity of the ears was assayed using the technique detailed by Griffiths and coworkers (1988). To conduct the assay, each ear was homogenized in 1.0 ml of cetyltrimethylammonium bromide buffer for 5 sec using a Pro 200 tissue blender (Pro Scientific, Inc., Oxford, Conn.) at setting 5. These samples were then centrifuged for 5 minutes at 15,000 rpm in a 5415 Eppendorf microcentrifuge. Triplicate 20 microliter aliquots of supernatant were added to 200 microliters of reaction mixture (1.25 ml 1M Potassium Phosphate, 4.175 mg o-dianisidine dihydrochloride and 5 μl of 1% peroxide in a final volume of 25 ml). Absorbance at 450 nm was then measured at room temperature at three 60 second intervals using Bio-Kinetics Reader EL 312E (Bio-Tek Instruments). Activity, which was determined by a Bradford assay of the homogenate (BioRad Protein Assay, BioRad Laboratories, Inc. Hercules, Calif.) was expressed as units MPO per mg tissue +/−standard error.\n(§1) Two micrograms of TPA in 20 μl of acetone was applied onto both ears of each mouse to induce neutrophil infiltration. […] After 24 hours, the mice were sacrificed."}, "[3]": {"test_system": "TPA-induced neutrophil infiltration", "assay": "TPA-induced neutrophil infiltration, neutrophil counting assay (histology)", "format": "in vivo, mice", "details": "24 hours", "protocol": "Neutrophil Counting Assay: Ear punches buffered in 10% formalin in PBS at ambient temperature for a minimum of 24 hrs. were sectioned and stained with Hematoxilin & Eosin (“H&E”). The number of neutrophils, identified by their multilobular nuclei, in 6 randomly 100× magnified fields distributed along the length of the ear were manually counted. The results are expressed as the average number per field for each ear.\nas §1"}, "TPA-induced MPO activity [4]": {"test_system": "TPA-induced MPO activity", "assay": "TPA-induced MPO activity at different application times", "format": "in vivo, mice", "details": "1 μg/20 μl TPA; 1 mg/20 μl AFC at various times before and after TPA", "protocol": "In this example, both ears of six mice were treated with a 1 μg/20 μl dose of TPA in acetone."}, "TPA-induced MPO activity [5]": {"test_system": "TPA-induced MPO activity", "assay": "TPA-induced MPO activity in the contralateral vehicle-treated ear (systemic effect)", "format": "in vivo, mice", "method": "These included dexamethasone, a steroid, and indomethasone, a non-steroid anti-inflammatory drug, which targets cycloxygenases. The action of AFC in this model was, therefore, compared to that of dexamethasone and indomethasone. Each of these agents were tested using the same protocols used to test AFC."}, "TPA-induced erythema": {"test_system": "TPA-induced erythema", "assay": "TPA-induced erythema, mouse ear", "format": "in vivo", "details": "1 μg/20 μl TPA, 1 mg/20 μl AFC after 1 hour, photo 23 hours later", "protocol": "For this example, both ears of a mouse were treated with a 1 μg/20 μl dose of TPA in acetone. […] The photo was taken 23 hours later using a Nikon D70 digital camera."}, "human skin": {"test_system": "human skin", "assay": "SDS irritant patch test on human skin, AFC pre-applied", "format": "in vivo", "details": "140 mM AFC aqueous formulation pre-applied", "protocol": "An irritant was applied to the middle of the upper back of a human subject using a 0.2 ml 20% SDS solution and a Hill-Top Chamber patch with Webril pad. […] Patches 1a and 2a were removed after 2 hours, while patches 1b and 2b were removed after 2 hours and 30 minutes. High levels of irritation were visible in patch sites 2a and 2b."}, "chronic irritation": {"test_system": "chronic irritation", "assay": "Chronic irritation by multiple TPA applications, mouse ear", "format": "in vivo, mice", "details": "AFC in acetone, applied 6 hr apart on days 7, 8 and 9; TPA days 0, 2, 4, 7, 9", "protocol": "The effectiveness of the inventive compositions against established chronic irritation is assayed using a modification of the technique of Stanley P L et al., Mouse skin inflammation induced by multiple topical application 12-O-tetradeconoyphorbol-13-acetate. Skin Pharmacol. 1991, 4: p 262-271. (1991). Both ears of each mouse are treated with TPA in acetone, as above, in a series of 5 applications on the mornings of days 0, 2, 4, 7, and 9. […] Punches of the ears are taken the afternoon of the tenth day and prepared, as above, for the edema assay and the infiltration of neutrophils. Total granulocyte infiltration is assayed by measuring MPO activity. Macrophage infiltration is determined immunocytologically using the MOMA-2 antibody. Hydrocortisone, which is known to reduce inflammatory edema granulation infiltration and microphage infiltration, is used as a positive control."}, "[6]": {"test_system": "delayed-type hypersensitivity", "assay": "DNFB delayed-type hypersensitivity, mouse ear", "format": "in vivo, mice", "details": "AFC 0.5 hr before or 15 min after DNFB challenge, assay 5 hr later", "excerpt": "The mouse ear model, described above, is modified to assay the effect of anti-inflammatory agents in an immune based inflammation model (See Tramposch, K. M., Skin Inflammation, in In Vivo Models of Inflammation, M. L. Morgan D W, Editor. 1999, Birkhauser Verlag. p. 179-20 and Chapman, J. R., Z. Ruben, and G. M. Butchko, Histology of and quantitative assays for oxazolone-induced allergic contact dermatitis in mice. Am J Dermatopathol, 1986. 8(2): p. 130-8). In this model, a sensitizing dose of dinitrofluorobenzene (“DNFB”) 1-3% in acetone is applied topically according to a modification of the method by Back et al. (See Back, O. and T. Egelrud, Topical glucocorticoids and suppression of contact sensitivity. A mouse bioassay of anti-inflammatory effects. Br J Dermatol, 1985. 112(5): p. 539-45 and Bailey, S. C., et al., A novel contact hypersensitivity model for rank-ordering formulated corticosteroids. Inflamm Res, 1995. 44 Suppl 2: p. S162-3) to the shaved bellies of mice to elicit an immune response. Mice are challenged on day 5 with 40 μl of 0.5-1% DNFB to each ear. […] The ears are assayed for edema or neutrophil infiltration 5 hr later. Dexamethasone is used as a positive control. Five days later, the ears are challenged topically with a dose of DNFB insufficient to produce contact irritation. Simultaneously, cell infiltration studies are initiated. […]"}, "[7]": {"target": "membrane-associated polyisoprenoid methyl transferase (Homo sapiens, UniProt O60725)", "sequence (O60725 whole entry)": "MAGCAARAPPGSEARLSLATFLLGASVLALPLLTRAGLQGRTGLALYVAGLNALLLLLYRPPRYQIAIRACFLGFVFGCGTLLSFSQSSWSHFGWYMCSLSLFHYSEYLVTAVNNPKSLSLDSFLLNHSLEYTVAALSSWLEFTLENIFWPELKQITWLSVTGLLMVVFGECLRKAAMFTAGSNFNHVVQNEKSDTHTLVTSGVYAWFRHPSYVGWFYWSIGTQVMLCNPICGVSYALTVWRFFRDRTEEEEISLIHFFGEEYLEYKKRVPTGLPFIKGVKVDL", "details": "cited from earlier work"}, "[8]": {"test_system": "neutrophil, macrophage, and platelet responses", "details": "cited from earlier work"}, "mouse ear [9]": {"test_system": "mouse ear", "assay": "TPA dose response, mouse ear edema", "format": "in vivo, Swiss Webster mice", "details": "TPA 0.25 to 1.75 μg/20 μl in acetone, topical, 5.5 hours, 6 mm ear punch", "protocol": "Increasing concentrations of TPA dissolved in acetone were applied with the aid of a micropipetter onto the right ear of each of the five 6-8 week old, male Swiss Webster mice used in this analysis. Ten microliters were spread evenly onto the inner and outer surfaces using the pipette tip. The mice were then returned to their cages. The contralateral ear was treated only with acetone. After 5.5 hours, the mice were sacrificed and 6 mm punches were taken from each ear and weighed. Edema response was expressed as a percent increase in the treated ear's weight over the untreated ear. The dose response curve, as well as an ED50 value, was determined using the Lichtfield method (Lichtfield J T W. F., A simplified method of evaluating dose-effect experiments, Journal of Pharmacology and Experimental Therapeutics, 1948, 96: P. 99-113)."}, "[10]": {"details": "2 μg TPA/20 μl acetone, AFC 15 min later, topical, 24 hours"}},
  "data": [
    {"compound": "CC(=O)N[C@@H](CSCC=C(C)CCC=C(C)CCC=C(C)C)C(=O)O", "note": "(stereo in doubt) [AFC, N-acetyl-S-farnesylcysteine]", "values": [
      {"measurement": "edema response (ear punch biopsy weight), AFC alone", "setting": "mouse ear [1]", "value": "no effect"},
      {"measurement": "maximum reduction in TPA-induced edema", "setting": "TPA-induced edema", "value": 80, "unit": "%"},
      {"measurement": "ED50, inhibition of TPA-induced MPO activity", "setting": "TPA-induced MPO activity [2]; [10]", "value": 0.065, "unit": "mg/20 μl"},
      {"measurement": "inhibition of TPA-induced increases in MPO activity", "setting": "TPA-induced MPO activity [2]; [10]", "value": "> 80", "unit": "%"},
      {"measurement": "inflammation activity of AFC on its own in the Neutrophil-Infiltration Assay", "setting": "TPA-induced MPO activity [2]; AFC alone", "value": "no inflammation activity of its own"},
      {"measurement": "reduction in dermal neutrophils (counted)", "setting": "[3]; 1.0 mg/20 μl AFC, TPA irritation, statistically significant", "value": 80, "unit": "%"},
      {"measurement": "neutrophils observed histologically in AFC treated ear", "setting": "[3]; TPA pretreated ears, H&E", "value": "substantial reduction of neutrophils"},
      {"measurement": "effect on TPA-induced MPO activity versus time of application", "setting": "TPA-induced MPO activity [4]", "value": "efficacy of AFC treatment prior to, simultaneous with, or after exposure of skin to TPA"},
      {"measurement": "MPO activity in contralateral vehicle-treated ear (systemic effect)", "setting": "TPA-induced MPO activity [5]; topical, increasing concentration on the other ear, TPA on both ears", "value": "no effect"},
      {"measurement": "TPA-induced erythema", "setting": "TPA-induced erythema", "value": "observed an effect"},
      {"measurement": "skin irritation at patch site 1a", "setting": "human skin; 20% SDS patch removed after 2 hours", "value": "normal skin"},
      {"measurement": "skin irritation at patch site 1b", "setting": "human skin; 20% SDS patch removed after 2 hours and 30 minutes", "value": "mild response"},
      {"measurement": "chronic edema", "setting": "chronic irritation", "value": "reduces"},
      {"measurement": "neutrophil number (chronic irritation)", "setting": "chronic irritation", "value": "reduces"},
      {"measurement": "edema (DNFB challenge)", "setting": "[6]", "value": "effective in reducing"},
      {"measurement": "neutrophil infiltration (DNFB challenge)", "setting": "[6]", "value": "effective in reducing"},
      {"measurement": "inhibition of membrane-associated polyisoprenoid methyl transferase", "setting": "[7]", "value": "inhibit"},
      {"measurement": "neutrophil, macrophage, and platelet responses in vitro", "setting": "[8]", "value": "block some"}
    ]},
    {"compound": "tetradecanoylphorbol acetate [TPA]", "values": [
      {"measurement": "maximum increase in ear weight", "setting": "mouse ear [9]", "value": "approximately 150 % of the acetone-treated ear"}
    ]},
    {"compound": "C[C@@H]1C[C@H]2[C@@H]3CCC4=CC(=O)C=C[C@]4(C)[C@@]3(F)[C@@H](O)C[C@]2(C)[C@@]1(O)C(=O)CO", "note": "[dexamethasone]", "values": [
      {"measurement": "MPO activity in contralateral vehicle-treated ear (systemic effect)", "setting": "TPA-induced MPO activity [5]; mouse, in vivo", "value": "increasing inhibition of MPO activity"}
    ]},
    {"compound": "COc1ccc2c(c1)c(CC(=O)O)c(C)n2C(=O)c1ccc(Cl)cc1", "note": "[indomethasone]", "values": [
      {"measurement": "MPO activity in contralateral vehicle-treated ear (systemic effect)", "setting": "TPA-induced MPO activity [5]; mouse, in vivo", "value": "increasing inhibition of MPO activity"}
    ]}
  ]
}
